Measured values: the supplement of paper PMC10307832

Columns and labels:
Assay in all cases: relative viability (nuclei count vs DMSO), 5 days (fraction); higher = more cells survive
[1] = compound: C[C@@]1(C(=O)Nc2ccc(F)nc2)CCCN1c1nc(Nc2cc(C3CC3)n[nH]2)c2cccn2n1 + COc1cccc2cc(-c3nc([C@H]4CC[C@H](C(=O)O)CC4)n4ncnc(N)c34)[nH]c12 [OSI-027] (partner 0.5 µM)
How it was run: (§1)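 A single step with final 0.05% Triton X-100, 1% formaldehyde and 1 ug/ml Hoechst fixed the cells and stained nuclei 5 days after treatment. Lung cancer cell lines in 1536-well plates had been treated by pin tool the day after seeding with one drug alone or a fixed anchor-drug dose plus five library-drug doses (not always all listed) in √10 steps, and nuclei were counted on 4× images. Relative viability is the ratio of nuclei in treated wells to nuclei in vehicle wells, taken as the median of duplicate plates.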

[2] = compound: C[C@@]1(C(=O)Nc2ccc(F)nc2)CCCN1c1nc(Nc2cc(C3CC3)n[nH]2)c2cccn2n1 + Nc1nc2[nH]cc(CCc3ccc(C(=O)N[C@@H](CCC(=O)O)C(=O)O)cc3)c2c(=O)[nH]1 [Pemetrexed] (partner 0.2 µM)
How it was run: as §1

[3] = compound: C[C@@]1(C(=O)Nc2ccc(F)nc2)CCCN1c1nc(Nc2cc(C3CC3)n[nH]2)c2cccn2n1 + CS(=O)(=O)CCNCc1ccc(-c2ccc3ncnc(Nc4ccc(OCc5cccc(F)c5)c(Cl)c4)c3c2)o1 [Lapatinib] (partner 2 µM)
How it was run: as §1

Motesanib + Foretinib = compound: CC1(C)CNc2cc(NC(=O)c3cccnc3NCc3ccncc3)ccc21 [Motesanib] + COc1cc2c(Oc3ccc(NC(=O)C4(C(=O)Nc5ccc(F)cc5)CC4)cc3F)ccnc2cc1OCCCN1CCOCC1 [Foretinib] (partner 0.25 µM)
How it was run: as §1

Cell Line	relative viability ([1]; first compound 0.04 µM)	relative viability ([1]; first compound 0.1265 µM)	relative viability ([1]; first compound 0.4 µM)	relative viability ([1]; first compound 1.265 µM)	relative viability ([2]; first compound 0.04 µM)	relative viability ([2]; first compound 0.1265 µM)	relative viability ([2]; first compound 0.4 µM)	relative viability ([2]; first compound 1.265 µM)	relative viability ([3]; first compound 0.04 µM)	relative viability ([3]; first compound 0.1265 µM)	relative viability ([3]; first compound 0.4 µM)	relative viability ([3]; first compound 1.265 µM)	relative viability (Motesanib + Foretinib; first compound 0.01 µM)	relative viability (Motesanib + Foretinib; first compound 0.03162 µM)	relative viability (Motesanib + Foretinib; first compound 0.1 µM)	relative viability (Motesanib + Foretinib; first compound 0.3162 µM)	relative viability (Motesanib + Foretinib; first compound 1 µM)
HOP-62	0.758	0.574	0.641	0.657	0.294	0.297	0.315	0.341	0.978	0.907	1.05	1.04	1.17	1.1	1.02	1.1	1.21
IA-LM	–	–	–	–	–	–	–	–	0.702	0.935	0.647	0.601	1.12	1.1	1.23	1.07	1.19
LC-2-ad	0.601	0.458	0.405	0.392	0.28	0.242	0.263	0.211	0.904	0.759	0.745	0.32	0.875	0.988	0.893	0.984	1.02
LCLC-97TM1	0.284	0.111	0.122	0.112	0.137	0.155	0.149	0.143	0.572	0.301	0.172	0.163	0.948	0.968	0.976	0.919	0.979
LCLC-103H	0.434	0.295	0.268	0.274	0.49	0.509	0.44	0.41	–	–	–	–	0.809	0.707	0.844	0.867	0.937
LK-2	–	0.163	0.153	0.178	0.175	0.195	–	0.156	–	1.16	0.584	0.713	1.21	1.08	–	1.27	1.31
LOU-NH91	0.65	0.665	0.59	0.563	0.394	0.409	0.353	0.346	0.671	0.567	0.601	0.564	0.97	0.929	0.91	0.948	1.02
LU99A	0.251	0.233	0.223	0.186	0.187	0.165	0.183	0.165	0.808	0.545	0.48	0.342	0.795	0.813	0.734	0.898	0.89
LXF-289	0.633	0.463	0.407	0.353	0.9	0.921	0.804	0.859	0.914	0.856	0.831	0.802	1	0.952	0.924	1.03	0.987
NCI-H23	0.397	0.232	0.225	0.266	0.506	0.437	0.399	0.312	0.958	0.496	0.695	0.6	0.952	0.718	0.892	1.38	0.933
NCI-H322M	0.483	0.364	0.363	0.321	0.63	0.525	0.52	0.537	0.533	0.441	0.374	0.341	1.09	0.998	0.979	0.946	1.06
NCI-H358	0.415	0.179	0.15	0.138	0.15	0.155	0.117	0.137	0.304	0.22	0.259	0.251	0.599	0.712	0.67	0.807	0.629
NCI-H441	0.405	0.322	0.313	0.328	0.246	0.261	0.243	0.267	–	–	–	–	0.889	0.922	1.13	1	1.03
NCI-H460	0.538	0.252	0.29	0.313	0.0607	0.0684	0.0535	0.0527	1.05	0.798	0.886	0.829	0.942	0.966	1	1.01	1.04
NCI-H522	0.589	0.36	0.735	0.704	0.832	1.25	0.706	0.933	–	–	–	–	–	–	–	–	–
NCI-H727	0.373	0.273	0.383	0.351	–	–	–	–	0.692	0.371	0.247	0.294	0.707	0.98	0.854	1.09	0.883
NCI-H1299	–	–	–	–	–	–	–	–	1.01	1.03	0.964	0.967	1.06	1.11	1.11	1.16	1.12
NCI-H1623	0.423	0.32	0.307	0.302	–	–	–	–	–	–	–	–	0.869	0.889	0.763	0.871	0.873
NCI-H1648	0.25	–	–	0.229	0.661	0.606	0.624	0.637	–	–	–	–	–	–	–	–	–
NCI-H1703	–	–	–	–	–	–	–	–	0.996	0.867	0.898	–	0.349	0.318	0.325	0.395	0.355
NCI-H1792	0.303	0.828	0.199	0.212	0.641	0.333	0.303	0.27	0.82	0.412	0.546	0.696	–	–	–	–	–
NCI-H2342	0.636	0.561	0.448	0.479	0.819	0.725	0.579	0.664	–	–	–	–	1.03	1.09	1.12	1.1	0.971
SW 900	0.549	0.518	0.464	0.551	0.439	0.492	0.476	0.467	–	–	–	–	0.824	0.9	1.36	0.887	0.874
